Values of other authors as cited in patent publication US20040247689A1, “Process for preparing a pharmaceutical active ingredient with high specific surface area” (priority 2003, published 2004).

solubility in chloroform (chloroform): slightly soluble | solubility in ethanol (ethanol): slightly soluble | solubility in isopropanol (isopropanol): slightly soluble | solubility in methanol (methanol): freely soluble | solubility in water (water): sparingly soluble
Structure (SMILES): OCc1cc(C(O)CNCCCCCCOCCCCc2ccccc2)ccc1O (centres unmarked) [salmeterol xinafoate]
